Measurements taken from US4423039A, “Disaggregated solutions of polypeptides, their preparation and use” (The Hospital for Sick Children, priority 1980, dated 1983).

Experiments:
glucagon = glucagon (Homo sapiens, UniProt P01275); experiment: dissolution of glucagon crystals in test solutions (tested as for insulin); type: physicochemical; conditions: 150 mmol solution (pH 7.5) in distilled water
Experimental: (§1) The test involved transferring pork insulin crystals to a clean microscope slide using the tip of a 25 G needle so that 10 to 30 crystals were distributed in the field of view. A 25 μl aliquot of the test solution was pipetted to form a small droplet which covered the crystals. […] The pH's of the test solutions were measured and the former were adjusted where appropiate to pH 7.5 using 1 N NaOH or 1 N HCl.

Neutral pork insulin = Neutral pork insulin (Sus scrofa, UniProt P01315); conditions: 2.5, 25, 250 and 2,500 mmolar; 5 U/ml neutral pork insulin, 0.1 g copper per 10 ml, shaken at 37° C., pH 7.5, triplicate
Neutral pork insulin, sequence (P01315 25-54 limits assumed): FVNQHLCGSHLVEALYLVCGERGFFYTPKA
Neutral pork insulin, sequence (P01315 88-108 limits assumed): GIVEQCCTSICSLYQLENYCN
Experimental: Biostatic water was used as the diluent. Neutral pork insulin was added to each to give a final concentration of 5 U/ml. To each sterile 10 ml vial 0.1 g of copper was added. Control vials were prepared exactly as above but no bicarbonate was added. The vials were aggitated on an Eberback shaker at 37° C. The experiment was run in triplicate at pH 7.5.

zinc insulin crystals = molecular target: T1, zinc insulin crystals (Sus scrofa, UniProt P01315); experiment: dissolution times of zinc insulin crystals exposed to test solutions (microscope slide assay); type: physicochemical, pork
T1 construct: measures the dissolution times of zinc insulin crystals
T1 sequence (P01315 25-54 limits assumed): as the sequence (P01315 25-54 limits assumed) above
Experimental: as §1

[1] = test solution 150 mmol/l, pH 7.5, 25 μl droplet on pork zinc insulin crystals

glucagon, sequence (P01275 53-81 limits assumed, species assumed): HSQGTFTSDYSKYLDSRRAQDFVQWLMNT

dissolution time of glucagon (glucagon) | time vials remained clear (no aggregation) to date (Neutral pork insulin) | Dissolution Time ± SEM (zinc insulin crystals; test solution 25 mmol/l, pH 7.5) | Dissolution Time ± SEM (zinc insulin crystals; [1]) | SMILES | fraction of insulin crystals dissolved at 300 sec (zinc insulin crystals; 25 mmol/l, at 300 sec)
45 ± 12 s | ≥ 35 days | 360 ± 20 s | 50 ± 5 s | O=C([O-])O.[Na+] [Sodium Bicarbonate] | 
 |  |  | > 1200 s | CC(O)C(=O)O (stereo not shown) [Lactic Acid] | 
 |  |  |  | NC(N)=O [Urea] | 20%

SMILES | dissolution time of glucagon (glucagon) | time vials remained clear (no aggregation) to date (Neutral pork insulin) | Dissolution Time ± SEM (zinc insulin crystals; test solution 25 mmol/l, pH 7.5) | Dissolution Time ± SEM (zinc insulin crystals; [1]) | fraction of insulin crystals dissolved at 300 sec (zinc insulin crystals; 25 mmol/l, at 300 sec)
O=CO [Formic Acid] |  |  |  | > 1200 s | 
